Tests used:
[1] = in vitro; format: cell-based; conditions: Vero-E6 cells, MTT, 40 μM peptide, read-out: cell viability
Description: (§1) The cytotoxicity of test samples was assessed in Vero-E6 cells using the MTT assay, following the manufacturer’s protocol for the CellTiter 96 Non-radioactive Cell Proliferation Assay (Promega). Briefly, […] cells were seeded in 96-well plates at a density of 2 × 10^4 cells per well and incubated for 24 h. Following this, cells were treated with test samples at concentrations ranging from 0.2 to 40 μM and incubated for an additional 24 h. After incubation, 15 μL of MTT reagent (dye solution) was added to each well, and the cells were further incubated for 4 h. Subsequently, 100 μL of solubilization/stop solution was added to dissolve the formazan crystals. The optical density was measured at 570 nm, and statistical significance was determined by comparing the results to those of the mock-treated cells. […]
(§2) Figure S5. MTT assay of peptides including scrambled version
(§3) Vero-E6 cells were treated with NSP8-based peptides at concentrations ranging from 0.2 to 40 μM and incubated for an additional 24 hours. Cytotoxicity was evaluated using the MTT assay to assess the impact of the peptides on cell viability. According to IOS 10993-5 guidelines, cell […]
(§4) moderate cytotoxicity, and below 40% signifies strong cytotoxicity. […]

[2] = test system: Vero-E6 cells; assay: in vitro; format: cell-based; conditions: MTT, 24 h
Description: as §1, §2, §3, §4

[3] = test system: wild-type ancestral SARS-CoV-2 L-clade strain; format: cell-based
[4] = Plasma stability; format: in vitro ADME; conditions: mouse plasma (ICR, male, K2-EDTA), LC-MS/MS; for Plasma Stability Half-life / time to complete loss of detectable peptide in plasma: 10 μM; for Plasma Stability Half-life / half-life at 10 μM: 37°C, 0, 20, 40, 60, 120 min, duplicate (n = 2); for time to complete loss of detectable peptide in plasma: 37°C, n = 2
Description: Plasma stability of the peptides was evaluated using mouse plasma (ICR, male, K2-EDTA) purchased from Innovative Research. Each peptide (10 μM final concentration) was incubated at 37°C for 0, 20, 40, 60, and 120 min. Samples were processed and analyzed by LC-MS/MS, as described above. Procaine was used as a positive control.
(§5) All in vitro stability experiments were performed in duplicate (n = 2). Since the standard deviation was less than 20% in all cases, no additional replicates were conducted.

[5] = Liver microsomal stability; format: in vitro ADME, mouse; conditions: for Metabolic Stability Evaluation: classified based on in vivo CL_int values (footnote of Table S3); for half-life at 10 μM / remaining at 1 h, 10 μM / microsomal CLint at 10 μM: mouse liver microsomes (CD-1, pooled), 37°C; for half-life at 10 μM: NADPH, 0, 5, 15, 30, 60 min, duplicate (n = 2); for half-life at 10 μM / remaining at 1 h, 10 μM: LC-MS/MS; for remaining at 1 h, 10 μM / microsomal CLint at 10 μM: NADPH; for remaining at 1 h, 10 μM: n = 2, read-out: Microsomal Stability Remaining at 60 min; for microsomal CLint at 10 μM: calculated from the depletion rate, read-out: CL_int, microsomal; for CL_int, in vivo: scaled from microsomal CL_int to in vivo liver clearance using established mouse parameters
Description: Reactions were quenched and peptide concentrations were quantified using liquid chromatography-tandem mass spectrometry (LC-MS/MS) (AB Sciex QTRAP 6500+, Analyst software version 1.7.2). Clearance and half-life were calculated by non-compartmental analysis, and values were converted to hepatic clearance (CLint, liver) using standard scaling factors.
as §5

[6] = molecular target: T1, SARS-CoV-2 RdRp (Severe acute respiratory syndrome coronavirus 2, UniProt P0DTD1); format: cell-based
T1 construct: The SARS-CoV-2 reporter and NSP12, NSP7, and NSP8 genes were cloned into pcDNA3.1(+) plasmid vectors; expressed in transfected cells; host or cells: 293T (HEK-293T) cells, pcDNA3.1(+) plasmids

[7] = molecular target: T2, NSP12-NSP8-NSP7 complex (Severe acute respiratory syndrome coronavirus 2, UniProt P0DTD1); format: binding, SARS-CoV-2; conditions: for KD of the NSP8-NSP7-RNA ligand complex to NSP12 in the presence of the peptide: MST, labeled NSP12 20 nM, PBS with Tween 20, mean ± SD, more than three independent analyses, no-peptide Ctrl 11.9-12.9 nM
T2 construct: made in house; host or cells: NSP12: baculovirus in Hifive insect cells; NSP7 and NSP8: E. coli BL21(DE3), pET-11

[8] = concentrations between 20 and 40 μM

Molecule	viability at 24 h, 40 µM [1] [%]	cytotoxicity (ISO 10993-5) ([2]; at 40 μM)	viral replication (infectious virus titers, TCID50), in words [3]	Plasma Stability Half-life [4]	time to complete loss of detectable peptide in plasma [4] [min]	half-life at 10 μM [4] [min]	Metabolic Stability Evaluation [5]	half-life at 10 μM [5] [min]	remaining at 1 h, 10 μM [5] [%]	microsomal CLint at 10 μM [5] [µL/min/mg]	CL_int, in vivo [5] [mL/min/kg]	cytotoxicity (ISO 10993-5) [2, 8]	effect on polymerase activity, in words [6]	KD of the NSP8-NSP7-RNA ligand complex to NSP12 in the presence of the peptide [7] [nM]	peptide aggregation in the MST assay ([7]; PBS with Tween 20 buffer, peptide 24 μM)
CC[C@H](C)[C@H](NC(=O)[C@H](CC(N)=O)NC(=O)[C@H](CC(N)=O)NC(=O)[C@H](CC(C)C)NC(=O)[C@H](C)NC(=O)[C@H](CC(=O)O)NC(=O)[C@H](CC(N)=O)NC(C)=O)C(=O)N[C@H](C(=O)N[C@@H](CC(N)=O)C(=O)N[C@@H](CC(N)=O)C(=O)N[C@@H](C)C(=O)N[C@@H](CCCNC(=N)N)C(=O)N[C@@H](CC(=O)O)C(=O)NCC(=O)N[C@@H](CS)C(=O)N[C@H](C(=O)N1CCC[C@H]1C(=O)N[C@@H](CC(C)C)C(=O)N[C@@H](CC(N)=O)C(=O)N[C@H](C(=O)N[C@H](C(=O)N1CCC[C@H]1C(=O)N[C@@H](CC(C)C)C(=O)N[C@H](C(=O)N[C@H](C(=O)N[C@@H](C)C(=O)NCC(=O)N[C@@H](CCCNC(=N)N)C(=O)N[C@@H](CCCCN)C(=O)N[C@@H](CCCCN)C(=O)N[C@@H](CCCNC(=N)N)C(=O)N[C@@H](CCCNC(=N)N)C(=O)N[C@@H](CCC(N)=O)C(=O)N[C@@H](CCCNC(=N)N)C(=O)N[C@@H](CCCNC(=N)N)C(=O)N[C@@H](CCCNC(=N)N)C(=O)N1CCC[C@H]1C(=O)N[C@@H](CCC(N)=O)C(N)=O)[C@@H](C)O)[C@@H](C)O)[C@@H](C)CC)[C@@H](C)CC)C(C)C)[C@@H](C)CC [N8-Pepα]	> 80	no cytotoxicity (cell viability above 80% indicates no cytotoxicity)	strongest antiviral effects	approximately 3 min	≤ 20	3	High metabolism	9.2	0	151	594.7	–	–	–	–
CC[C@H](C)[C@@H]1NC(=O)[C@H](CC(N)=O)NC(=O)[C@H](CC(N)=O)NC(=O)[C@H](CC(C)C)NC(=O)[C@H](C)NC(=O)[C@H](CC(=O)O)NC(=O)[C@H](CC(N)=O)NC(=O)[C@@H](NC(C)=O)CSSC[C@@H](C(=O)NCC(=O)N[C@@H](CCCNC(=N)N)C(=O)N[C@@H](CCCCN)C(=O)N[C@@H](CCCCN)C(=O)N[C@@H](CCCNC(=N)N)C(=O)N[C@@H](CCCNC(=N)N)C(=O)N[C@@H](CCC(N)=O)C(=O)N[C@@H](CCCNC(=N)N)C(=O)N[C@@H](CCCNC(=N)N)C(=O)N[C@@H](CCCNC(=N)N)C(=O)N2CCC[C@H]2C(=O)N[C@@H](CCC(N)=O)C(N)=O)NC(=O)[C@H](C)NC(=O)[C@H]([C@@H](C)O)NC(=O)[C@H]([C@@H](C)O)NC(=O)[C@H](CC(C)C)NC(=O)[C@@H]2CCCN2C(=O)[C@H]([C@@H](C)CC)NC(=O)[C@H]([C@@H](C)CC)NC(=O)[C@H](CC(N)=O)NC(=O)[C@H](CC(C)C)NC(=O)[C@@H]2CCCN2C(=O)[C@H](C(C)C)NC(=O)[C@H](CS)NC(=O)CNC(=O)[C@H](CC(=O)O)NC(=O)[C@H](CCCNC(=N)N)NC(=O)[C@H](C)NC(=O)[C@H](CC(N)=O)NC(=O)[C@H](CC(N)=O)NC(=O)[C@H]([C@@H](C)CC)NC1=O [N8-Pepα_cyc]	> 80	no cytotoxicity (cell viability above 80% indicates no cytotoxicity)	strongest antiviral effects	approximately 3 min	≤ 20	3	High metabolism	23.3	14.9	59.6	234.7	–	–	–	–
CC[C@H](C)[C@H](NC(=O)[C@H](CC(N)=O)NC(=O)[C@H](CC(C)C)NC(=O)[C@@H]1CCCN1C(=O)[C@@H](NC(=O)[C@H](CS)NC(=O)CNC(=O)[C@H](CC(=O)O)NC(=O)[C@H](CCCNC(=N)N)NC(=O)[C@H](C)NC(=O)CNC(=O)[C@H](CO)NC(=O)CNC(=O)[C@H](CCCNC(=N)N)NC(=O)[C@H](CCCNC(=N)N)NC(=O)[C@H](CCCNC(=N)N)NC(=O)[C@H](CCC(N)=O)NC(=O)[C@H](CCCNC(=N)N)NC(=O)[C@H](CCCNC(=N)N)NC(=O)[C@H](CCCCN)NC(=O)[C@H](CCCCN)NC(=O)[C@H](CCCNC(=N)N)NC(=O)CNC(=O)[C@H](Cc1ccc(O)cc1)NC(C)=O)C(C)C)C(=O)N[C@H](C(=O)N1CCC[C@H]1C(=O)N[C@@H](CC(C)C)C(=O)N[C@H](C(=O)N[C@H](C(=O)N[C@@H](C)C(=O)N[C@@H](C)C(=O)N[C@@H](CCCCN)C(=O)N[C@@H](CC(C)C)C(=O)N[C@@H](CCSC)C(=O)N[C@H](C(=O)N[C@H](C(=O)N[C@H](C(=O)N1CCC[C@H]1C(=O)N[C@@H](CC(=O)O)C(N)=O)[C@@H](C)CC)C(C)C)C(C)C)[C@@H](C)O)[C@@H](C)O)[C@@H](C)CC [N8-PepβD]	–	–	–	approximately 3 min	≤ 20	3	High metabolism	17.8	7.8	77.9	306.7	weak cytotoxicity (80%-60% suggests weak cytotoxicity)	–	–	–
CC[C@H](C)[C@H](NC(=O)[C@H](CC(N)=O)NC(=O)[C@H](CC(N)=O)NC(=O)[C@H](CC(C)C)NC(=O)CNC(=O)[C@H](CO)NC(=O)CNC(=O)[C@H](CCCNC(=N)N)NC(=O)[C@H](CCCNC(=N)N)NC(=O)[C@H](CCCNC(=N)N)NC(=O)[C@H](CCC(N)=O)NC(=O)[C@H](CCCNC(=N)N)NC(=O)[C@H](CCCNC(=N)N)NC(=O)[C@H](CCCCN)NC(=O)[C@H](CCCCN)NC(=O)[C@H](CCCNC(=N)N)NC(=O)CNC(=O)[C@H](Cc1ccc(O)cc1)NC(C)=O)C(=O)N[C@H](C(=O)N[C@@H](CC(N)=O)C(=O)N[C@@H](CC(N)=O)C(=O)N[C@@H](C)C(=O)N[C@@H](CCCNC(=N)N)C(=O)N[C@@H](CC(=O)O)C(=O)NCC(=O)N[C@@H](CS)C(=O)N[C@H](C(=O)N1CCC[C@H]1C(=O)N[C@@H](CC(C)C)C(=O)N[C@@H](CC(N)=O)C(=O)N[C@H](C(=O)N[C@H](C(=O)N1CCC[C@H]1C(=O)N[C@@H](CC(C)C)C(=O)N[C@H](C(=O)N[C@H](C(=O)N[C@@H](C)C(=O)N[C@@H](C)C(=O)N[C@@H](CCCCN)C(=O)N[C@@H](CC(C)C)C(=O)N[C@@H](CCSC)C(=O)N[C@H](C(=O)N[C@H](C(N)=O)C(C)C)C(C)C)[C@@H](C)O)[C@@H](C)O)[C@@H](C)CC)[C@@H](C)CC)C(C)C)[C@@H](C)CC [N8-Pepβ]	–	–	–	approximately 3 min	≤ 20	3	High metabolism	9.8	15.1	142	559.2	weak cytotoxicity (80%-60% suggests weak cytotoxicity)	–	–	–
CCC(CC)COC(=O)[C@H](C)N[P@](=O)(OC[C@H]1O[C@@](C#N)(c2ccc3c(N)ncnn23)[C@H](O)[C@@H]1O)Oc1ccccc1 [remdesivir]	–	–	–	–	–	–	–	–	–	–	–	–	dose-dependent reduction in polymerase activity	–	–
Ac-INRNLTVPNICTPGILINADANADLNGRKKRRQRRRPQ-NH2 [N8-Pepα_sc]	–	–	–	–	–	–	–	–	–	–	–	–	–	14.3 ± 1.0	–
Ac-YGRKKRRQRRRGSGINVDAPMNNAGLKLTIRPCLTVIVNANIL-NH2 [N8-Pepβ_sc]	–	–	–	–	–	–	–	–	–	–	–	–	–	14.2 ± 0.9	–
Ac-YGRKKRRQRRRGSGVVIPKIDLAAPNLMDLVPCRIATTG-NH2 [N8-PepβD_sc]	–	–	–	–	–	–	–	–	–	–	–	–	–	–	could not be determined due to peptide aggregation

From PMC12432892, “Therapeutic applications of interface-mimicking peptides for targeting the SARS-CoV-2 NSP12-NSP8 RdRp complex” (Molecular Therapy, 2025)
